# Test results taken from ChEMBL document CHEMBL1150850, “Cytotoxic principles from Ventilago leiocarpa” (J Nat Prod, 2001).
# Key:
# Calu-1 = test: Inhibition of human Calu1 cell proliferation assessed as [3H]thymidine incorporation after 3 days by scintillation counting; format: functional, cell-based
# HeLa = test: Inhibition of human HeLa cell proliferation assessed as [3H]thymidine incorporation after 3 days by scintillation counting; format: functional, cell-based
# Raji = test: Inhibition of human Raji cell proliferation assessed as [3H]thymidine incorporation after 3 days by scintillation counting; format: functional, cell-based
# Vero = test: Inhibition of african green monkey Vero cell proliferation assessed as [3H]thymidine incorporation after 3 days by scintillation counting; format: cell-based; details: Chlorocebus sabaeus
# WISH = test: Inhibition of human WISH cell proliferation assessed as [3H]thymidine incorporation after 3 days by scintillation counting; format: functional, cell-based
# K562 = test: Inhibition of human K562 cell proliferation assessed as [3H]thymidine incorporation after 3 days by scintillation counting; format: functional, cell-based
IC50 (Calu-1) [µM],IC50 (HeLa) [µM],IC50 (Raji) [µM],IC50 (K562) [µM],Structure (SMILES),IC50 (Vero) [µM],IC50 (WISH) [µM]
> 100,> 100,> 100,> 100,Cc1cc(O)c2c(c1)C(=O)c1cccc(O)c1C2=O [CHRYSOPHANOL],> 100,> 100
> 100,> 100,> 100,> 100,Cc1cc(O)c2c(c1O)C(=O)c1cccc(O)c1C2=O [ISLANDICIN],> 100,> 100
> 100,> 100,> 100,> 100,COC1=C(O)C(=O)c2c(O)c3c(c(OC)c2C1=O)CC(C)OC3C (configuration not stated) [VENTILOQUINONE K],> 100,> 100
> 100,> 100,> 100,> 100,O=C1c2c(O)cc(O)cc2O[C@H](c2ccc(O)cc2)[C@H]1O [DIHYDROKAEMPFEROL],> 100,> 100
> 100,> 100,> 100,> 100,COc1c(O)cc2c(c1OC)C(=O)c1c(cc(C)c(O)c1O)C2=O,> 100,> 100
> 100,> 100,> 100,> 100,CC1(C)CC[C@]2(C)CC=C3[C@]4(C)CC[C@H]5C(C)(C)[C@@H](O)CC[C@]5(C)[C@H]4CC[C@@]3(C)[C@@H]2C1 [TARAXEROL],> 100,> 100
> 100,> 100,> 100,> 100,COc1cc(O)c2c(c1)C(=O)c1c(O)c(C)cc(O)c1C2=O [PARIETIN],> 100,> 100
